Key:
hIL-17A = biological target: T1, hIL-17A (Homo sapiens, UniProt Q16552); test: Inhibition of hIL-17A-induced chemokine GROα/CXCL1 production in HT-29 cell; assay type: cell-based
T1 construct: purchased R&D 317-ILB
T1 sequence (Q16552 20-155 limits assumed): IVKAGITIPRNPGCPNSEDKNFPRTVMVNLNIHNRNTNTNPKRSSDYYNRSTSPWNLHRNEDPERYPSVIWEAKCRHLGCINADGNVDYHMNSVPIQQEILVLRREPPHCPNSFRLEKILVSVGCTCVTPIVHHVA
Protocol: Human colorectal adenocarcinoma cell HT-29 was inoculated to a 96-well plate (5×10^4 for per well), and incubated at 37° C. on an incubator overnight. A mixture of 30 ng/mL hIL-17A protein (R&D, #317-ILB) with gradient concentrations of IL-17A small molecule inhibitors or with 0.3 μg/mL positive control IL-17A antibody (R&D, #AF-317-NA) was incubated for 1 h at 37° C., and added into the 96-well plate to incubated with HT-29 at 37° C. for 48 h. A level of GROα in a cell culture supernatant was then detected using an ELISA kit for GROα (Cisbio, #62HCXC1peg).
Inhibitory effect of the compound prepared in Examples on hIL-17A-induced chemokine GROα/CXCL1 production in HT-29 cell was tested according to the methods of Experimental Examples 1 and 2. […] “-” indicated not tested. According to the results, the compounds provided herein have good human IL-17A inhibitory activity and can be effectively used in the treatment of diseases associated with abnormal hIL-17A activity.

human IL-17A (hIL-17A) = biological target: T2, human IL-17A (hIL-17A) (Homo sapiens, UniProt Q16552); test: IL-17A enzyme-linked immunosorbent assay (competitive ELISA, receptor-ligand binding)
T2 construct: purchased Sino Biological Inc. 12047-H07B
T2 sequence (Q16552 24-155): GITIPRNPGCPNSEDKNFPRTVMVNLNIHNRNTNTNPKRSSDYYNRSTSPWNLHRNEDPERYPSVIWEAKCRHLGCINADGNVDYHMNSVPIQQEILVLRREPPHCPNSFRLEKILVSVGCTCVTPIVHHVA
Protocol: The inhibition of receptor-ligand binding by human IL-17A (hIL-17A) inhibitors was detected by competitive ELISA. A 96-well plate was inoculated 0.2 μg/ml IL-17 (Sino Biological Inc. Cat #12047-H07B) for incubation at 37° C. for 30 min, 100 μL for per well. The 96-well plate was washed four times with phosphate buffered saline (PBS) containing Tween-20 (PBST, 0.05% Tween-20), 200 μL for per well each time. 200 μL of 5% skim milk were added into the 96-well plate for incubation on a shaker at 25° C. for 30 min. The 96-well plate was washed four times with PBST (0.05% Tween-20), and added with 89 μL of PBST and 1 μL of a compound to be measured (100×), in which a concentration the compound to be measured (100×) was 0.003 μM-30 μM. The mixture was mixed evenly and incubated at 25° C. for 10 min. The mixture was added with 10 μL of 16 nM IL-17R, followed by incubation at 25° C. for 30 min. After washing the 96-well plate 4 times, 100 μL of anti-Fc tag horseradish peroxidase (HRP) coupled antibody were added for incubation on a shaker at 25° C. for 30 min. After washing the 96-well plate 4 times, 100 μL of 3,3′,5,5′-tetramethylbenzidine (TMB) substrate solution were added to the 96-well plate for incubation away from light at 25° C. After addition of 20% HCl, an absorbance was measure by a microplate reader at 450 nm.
The compounds prepared according to the above method were assayed for human IL-17A inhibitory activity.

Structure (SMILES)	IC50 (hIL-17A)	IC50 (human IL-17A (hIL-17A))
Cc1n[nH]c(C)c1-c1ncc(NC(=O)[C@@H](NC(=O)c2nonc2C(C)C)C2c3ccc(F)cc3OCC23CC3)cc1F (stereo partly shown) [Compound 39]	856 nM	111 nM
Cc1n[nH]c(C)c1-c1ccc(NC(=O)[C@@H](NC(=O)c2nonc2C(C)C)C2c3ccc(F)cc3OCC23CC3)cc1F (stereo partly shown) [Compound 40]	115 nM	186 nM
Cc1nonc1C(=O)N[C@H](C(=O)Nc1ccc(-c2c(C)n[nH]c2C)cc1)C1c2cc(F)c(F)cc2OCC12CC2 (stereo partly shown) [Compound 42]	70 nM	40 nM
Cc1n[nH]c(C)c1-c1ccc(NC(=O)[C@@H](NC(=O)c2nonc2C(C)C)C2c3cc(F)c(F)cc3OCC23CC3)cn1 (stereo partly shown) [Compound 44]	336 nM	122 nM
Cc1n[nH]c(C)c1-c1ccc(NC(=O)[C@@H](NC(=O)c2nonc2C(C)C)C2c3cc(F)c(F)cc3OCC23CC3)cc1 (stereo partly shown) [Compound 45]	50 nM	125 nM
Cc1n[nH]c(C)c1-c1ncc(NC(=O)[C@@H](NC(=O)c2nonc2C(C)C)C2c3cc(F)c(F)cc3OCC23CC3)cc1F (stereo partly shown) [Compound 46]	122 nM	95 nM
Cc1n[nH]c(C)c1-c1ccc(NC(=O)[C@@H](NC(=O)c2ccnn2C(C)C)C2c3cc(F)c(F)cc3OCC23CC3)cc1 (stereo partly shown) [Compound 48]	184 nM	135 nM
Cc1n[nH]c(C)c1-c1ccc(NC(=O)[C@@H](NC(=O)c2ccnn2C(C)C)C2c3ccc(F)c(F)c3OCC23CC3)cn1 (stereo partly shown) [Compound 50]	569 nM	81 nM
Cc1n[nH]c(C)c1-c1ncc(NC(=O)[C@@H](NC(=O)c2ccnn2C(C)C)C2c3ccc(F)c(F)c3OCC23CC3)cc1F (stereo partly shown) [Compound 51]	313 nM	155 nM
Cc1n[nH]c(C)c1-c1ccc(NC(=O)[C@@H](NC(=O)C2(F)CC2)C2c3cc(F)c(F)cc3OCC23CC3)cc1 (stereo partly shown) [Compound 55]	228 nM	65 nM
Cc1n[nH]c(C)c1-c1ccc(NC(=O)[C@@H](NC(=O)c2ccnn2C(C)C)C2c3ccc(F)c(F)c3OCC23CC3)cc1 (stereo partly shown) [Compound 56]	355 nM	139 nM
Cc1nonc1C(=O)N[C@H](C(=O)Nc1ccc(-c2c(C)n[nH]c2C)cc1)C1c2ccc(F)c(F)c2OCC12CC2 (stereo partly shown) [Compound 57]	346 nM	112 nM
Cc1n[nH]c(C)c1-c1ccc(NC(=O)[C@@H](NC(=O)c2ccnn2C(C)C)C2c3c(F)cc(F)cc3OCC23CC3)cn1 (stereo partly shown) [Compound 59]	1480 nM	222 nM
Cc1n[nH]c(C)c1-c1ncc(NC(=O)[C@@H](NC(=O)c2ccnn2C(C)C)C2c3c(F)cc(F)cc3OCC23CC3)cc1F (stereo partly shown) [Compound 60]	279 nM	193 nM
Cc1n[nH]c(C)c1-c1ccc(NC(=O)[C@@H](NC(=O)c2ccnn2C(C)C)C2c3cc(F)c(F)cc3OCC23CC3)cn1 (stereo partly shown) [Compound 62]	177 nM	151 nM
Cc1n[nH]c(C)c1-c1ccc(NC(=O)[C@@H](NC(=O)c2nonc2C(C)C)C2c3ccc(F)c(F)c3OCC23CC3)cn1 (stereo partly shown) [Compound 63]	605 nM	156 nM
Cc1n[nH]c(C)c1-c1ncc(NC(=O)[C@@H](NC(=O)c2nonc2C(C)C)C2c3ccc(F)c(F)c3OCC23CC3)cc1F (stereo partly shown) [Compound 64]	335 nM	154 nM
Cc1n[nH]c(C)c1-c1ccc(NC(=O)[C@@H](NC(=O)c2nonc2C(C)C)C2c3ccc(F)c(F)c3OCC23CC3)cc1 (stereo partly shown) [Compound 65]	212 nM	222 nM
Cc1n[nH]c(C)c1-c1ccc(NC(=O)[C@@H](NC(=O)c2nonc2C2CC2)C2c3c(F)cc(F)cc3OCC23CC3)cc1 (stereo partly shown) [Compound 67]	557 nM	577 nM
Cc1n[nH]c(C)c1-c1ncc(NC(=O)[C@@H](NC(=O)c2nonc2C(C)C)C2c3cc(F)cc(F)c3OCC23CC3)cc1F (stereo partly shown) [Compound 68]	1940 nM	503 nM
Cc1nonc1C(=O)N[C@H](C(=O)Nc1ccc(-c2c(C)n[nH]c2C)cc1)C1c2cc(F)cc(F)c2OCC12CC2 (stereo partly shown) [Compound 69]	941 nM	288 nM

Structure (SMILES)	IC50 (hIL-17A)	IC50 (human IL-17A (hIL-17A))
Cc1n[nH]c(C)c1-c1ccc(NC(=O)[C@@H](NC(=O)c2ccnn2C(C)C)C2c3cc(F)cc(F)c3OCC23CC3)cc1 (stereo partly shown) [Compound 70]	112 nM	201 nM
Cc1n[nH]c(C)c1-c1ncc(NC(=O)[C@@H](NC(=O)c2ccnn2C(C)C)C2c3cc(F)cc(F)c3OCC23CC3)cc1F (stereo partly shown) [Compound 72]	1810 nM	343 nM
Cc1n[nH]c(C)c1-c1ccc(NC(=O)[C@@H](NC(=O)c2nonc2C(C)C)C2c3cc(F)cc(F)c3OCC23CC3)cn1 (stereo partly shown) [Compound 73]	795 nM	294 nM
Cc1n[nH]c(C)c1-c1ccc(NC(=O)[C@@H](NC(=O)c2nonc2C(C)C)C2c3cc(F)cc(F)c3OCC23CC3)cc1 (stereo partly shown) [Compound 74]	609 nM	413 nM
Cc1n[nH]c(C)c1-c1ccc(NC(=O)[C@@H](NC(=O)c2ccnn2C(C)C)C2c3c(F)ccc(F)c3OCC23CC3)cc1 (stereo partly shown) [Compound 76]	1050 nM	270 nM
CCc1nonc1C(=O)N[C@H](C(=O)Nc1ccc(-c2c(C)n[nH]c2C)cc1)C1c2cc(F)cc(F)c2OCC12CC2 (stereo partly shown) [Compound 77]	1010 nM	320 nM
Cc1n[nH]c(C)c1-c1ccc(NC(=O)[C@@H](NC(=O)c2nonc2C2CC2)C2c3cc(F)cc(F)c3OCC23CC3)cc1 (stereo partly shown) [Compound 80]	762 nM	406 nM
COCc1[nH]nc(C)c1-c1ccc(NC(=O)[C@@H](NC(=O)c2nonc2C)C2c3ccc(F)c(F)c3OCC23CC3)cc1 (stereo partly shown) [Compound 85]	1220 nM	133 nM
Cc1n[nH]c(C)c1-c1ncc(NC(=O)[C@@H](NC(=O)c2nonc2C2CC2)C2c3ccc(F)c(F)c3OCC23CC3)cc1F (stereo partly shown) [Compound 86]	718 nM	179 nM
Cc1n[nH]c(C)c1-c1ccc(NC(=O)[C@@H](NC(=O)c2nonc2C2CC2)C2c3ccc(F)c(F)c3OCC23CC3)cc1 (stereo partly shown) [Compound 87]	332 nM	165 nM
Cc1n[nH]c(C)c1-c1ncc(NC(=O)[C@@H](NC(=O)c2ccnn2C(C)C)C2c3ccc(F)cc3OCC23CC3)cc1F (stereo partly shown) [Compound 90]	188 nM	144 nM
Cc1n[nH]c(C)c1-c1ncc(NC(=O)[C@@H](NC(=O)c2nonc2C2CC2)C2c3ccc(F)cc3OCC23CC3)cc1F (stereo partly shown) [Compound 91]	1080 nM	67 nM
Cc1n[nH]c(C)c1-c1ncc(NC(=O)[C@@H](NC(=O)c2nonc2C2CC2)C2c3cc(F)c(F)cc3OCC23CC3)cc1F (stereo partly shown) [Compound 92]	9650 nM	187 nM
Cc1n[nH]c(C)c1-c1ccc(NC(=O)[C@@H](NC(=O)c2nonc2C2CC2)C2c3ccc(F)cc3OCC23CC3)cc1 (stereo partly shown) [Compound 94]	695 nM	572 nM
Cc1n[nH]c(C)c1-c1ccc(NC(=O)[C@@H](NC(=O)c2nonc2C2CC2)C2c3ccc(F)cc3OCC23CC3)cn1 (stereo partly shown) [Compound 95]	457 nM	94 nM
Cc1n[nH]c(C)c1-c1ncc(NC(=O)[C@@H](NC(=O)c2conc2C2CC2)C2c3cc(F)c(F)cc3OCC23CC3)cc1F (stereo partly shown) [Compound 96]	134 nM	125 nM
Cc1n[nH]c(C)c1-c1ccc(NC(=O)[C@@H](NC(=O)c2conc2C2CC2)C2c3cc(F)c(F)cc3OCC23CC3)cn1 (stereo partly shown) [Compound 97]	221 nM	165 nM
Cc1n[nH]c(C)c1-c1ccc(NC(=O)[C@@H](NC(=O)c2conc2C2CC2)C2c3ccc(F)cc3OCC23CC3)cn1 (stereo partly shown) [Compound 99]	213 nM	96 nM
Cc1n[nH]c(C)c1-c1ncc(NC(=O)[C@@H](NC(=O)c2conc2C2CC2)C2c3ccc(F)cc3OCC23CC3)cc1F (stereo partly shown) [Compound 100]	563 nM	189 nM
Cc1n[nH]c(C)c1-c1ccc(NC(=O)[C@@H](NC(=O)OC2CC2)C2c3cc(F)c(F)cc3OCC23CC3)cn1 (stereo partly shown) [Compound 105]	943 nM	81 nM
